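A five-concentration, 48-hour dose response in 96-well plates underlies each endpoint, interpolated linearly between surrounding concentrations. Abbreviation: GI50, concentration required for 50% inhibition of growth.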 The source made the active and inactive calls. Rule as the data show it: active = GI50 up to about 1.1 µM and inactive = higher.

Some test systems named below: HCC 2998; HCT-15; BT-549; M14; SK-OV-3; OVCAR-3; CCRF-CEM; SNB-75; U-251; HL-60; SN12C; 786-0; EKVX; SK-MEL-2; PC-3; TK-10; MDA-N; NCI-H460; NCI/ADR-RES.
Holding throughout (test): NCI-60 cell line screen, 48 h

Regarding `CSC1=NN(C(C)=O)C(C(OC(C)=O)C(OC(C)=O)C(OC(C)=O)C(COC(C)=O)OC(C)=O)S1` (stereo not given), the GI50 with HCC 2998 is > 100 µM (inactive); in the experiment with HCT-15, over 100 µM; with BT-549 it was > 100 µM (inactive); in the experiment with M14, > 100 µM (inactive); in the experiment with SK-OV-3, > 100 µM (inactive); in the experiment on OVCAR-3 it was > 100 µM (inactive). Also, the GI50 with CCRF-CEM, in the experiment with SNB-75, in the experiment on U-251, in the experiment on HL-60, in the experiment with SN12C and in the experiment on 786-0 was > 100 µM (inactive) each time. For the same molecule, the GI50 in the experiment with EKVX, with SK-MEL-2, with PC-3, in the experiment with TK-10, in the experiment on MDA-N and with NCI-H460 was > 100 µM (inactive) in each case. Besides, in the experiment on NCI/ADR-RES, the GI50 was > 100 µM (inactive).

In the case of `CC(C)(C)c1cc(C(=O)/C=C/c2c(Cl)cccc2Cl)cc(C(C)(C)C)c1O`, the GI50 was 14.1 µM (inactive) with HCC 2998; 12.4 µM in the experiment on HCT-15; 17.4 µM (inactive) in the experiment with BT-549; 20.3 µM (inactive) in the experiment with M14; 53.5 µM (inactive) in the experiment on SK-OV-3; 3.79 µM (inactive) in the experiment on OVCAR-3. Besides, the GI50 in the experiment with CCRF-CEM is 4.04 µM (inactive); in the experiment on SNB-75, 4.93 µM (inactive); in the experiment with U-251, 11.9 µM (inactive); with HL-60 it was 3.7 µM (inactive); in the experiment with SN12C, 21 µM (inactive); with 786-0, 13.1 µM (inactive). Moreover, the GI50 in the experiment on EKVX was 21.9 µM (inactive); in the experiment on SK-MEL-2 it was 11.9 µM (inactive); with PC-3, 11.4 µM (inactive); in the experiment on TK-10 it was 19.4 µM (inactive); in the experiment with MDA-N it was 16.7 µM (inactive); with NCI-H460, 7.46 µM (inactive). In addition, the GI50 with NCI/ADR-RES was 20.1 µM (inactive).

For `O=C(/C=C/c1ccccc1O)CC(=O)/C=C/c1ccccc1O`, the GI50 with HCC 2998 is 10.5 µM (inactive); with HCT-15, 3.64 µM; in the experiment with BT-549 it was 5.62 µM (inactive); in the experiment with M14, 12.8 µM (inactive); in the experiment on SK-OV-3, > 10 µM (inactive); in the experiment with OVCAR-3 it was 3.82 µM (inactive). Moreover, the GI50 in the experiment with CCRF-CEM was 3.1 µM (inactive); in the experiment with SNB-75 it was > 46.2 µM (inactive); in the experiment on U-251 it was 4.26 µM (inactive); with HL-60, 3.24 µM (inactive); in the experiment on SN12C, 5.38 µM (inactive); in the experiment with 786-0 it was 4.21 µM (inactive). The GI50 with EKVX was 13.3 µM (inactive); in the experiment with SK-MEL-2, 8.79 µM (inactive); in the experiment on PC-3, 5.28 µM (inactive); in the experiment on TK-10, 23.7 µM (inactive); in the experiment with MDA-N, 2.97 µM (inactive); with NCI-H460 it was 7.45 µM (inactive). Also, the GI50 with NCI/ADR-RES was 5.01 µM (inactive).

In the case of `COc1ccc2c(c1OC)C(=O)N1C2=Cc2c(cc3c(c2OC)OCO3)CC1N(C)C` (stereo not given), the GI50 is > 100 µM (inactive) with HCC 2998; 36.5 µM with HCT-15; 33.3 µM (inactive) with BT-549; 66.7 µM (inactive) in the experiment on M14; 87.7 µM (inactive) in the experiment with SK-OV-3; 40.6 µM (inactive) in the experiment on OVCAR-3. In addition, the GI50 was 27.7 µM (inactive) in the experiment with CCRF-CEM; 29.8 µM (inactive) in the experiment on SNB-75; 49.4 µM (inactive) with U-251; 24.9 µM (inactive) in the experiment on HL-60; 35.9 µM (inactive) with SN12C; > 100 µM (inactive) in the experiment on 786-0. Moreover, the GI50 was 65.8 µM (inactive) in the experiment on EKVX; 36.2 µM (inactive) with SK-MEL-2; 30.9 µM (inactive) in the experiment with PC-3; 96.6 µM (inactive) with TK-10; 95.3 µM (inactive) in the experiment with MDA-N; 28.8 µM (inactive) with NCI-H460. For the same molecule, the GI50 in the experiment on NCI/ADR-RES is 26.4 µM (inactive).

As for `S=C(N/N=C/c1ccccn1)N1CC2CCC(CC2)C1`, the GI50 is 0.0895 µM (active) with HCC 2998; under 0.01 µM in the experiment on HCT-15; < 0.01 µM (active) with BT-549; < 0.01 µM (active) in the experiment with M14; < 0.01 µM (active) in the experiment on SK-OV-3; < 0.01 µM (active) in the experiment with OVCAR-3. Besides, the GI50 in the experiment with CCRF-CEM was < 0.01 µM (active); in the experiment with SNB-75, 0.2 µM (active); with U-251, < 0.01 µM (active); with HL-60, < 0.01 µM (active); in the experiment with SN12C it was < 0.0216 µM (active); with 786-0, < 0.01 µM (active). The GI50 in the experiment with EKVX is < 0.0395 µM (active); in the experiment on SK-MEL-2 it was < 0.0471 µM (active); in the experiment on PC-3, < 0.01 µM (active); in the experiment with TK-10, < 0.01 µM (active); with MDA-N, 0.0188 µM (active); in the experiment on NCI-H460, < 0.01 µM (active). Besides, the GI50 with NCI/ADR-RES is < 0.01 µM (active).

As for `CO/C(=N\N=C\c1cccc(C(F)(F)F)c1)c1ccncc1`, the GI50 with HCC 2998 is 6.41 µM (inactive); in the experiment with HCT-15, 2.45 µM; in the experiment with BT-549 it was 7.13 µM (inactive); in the experiment with M14, 6.3 µM (inactive); in the experiment on SK-OV-3, 6.89 µM (inactive); with OVCAR-3 it was 10.7 µM (inactive). Besides, the GI50 in the experiment on CCRF-CEM is 4.62 µM (inactive); in the experiment on SNB-75, 15.5 µM (inactive); in the experiment with U-251, 5.14 µM (inactive); in the experiment on HL-60, 2.83 µM (inactive); with SN12C it was 3.67 µM (inactive); in the experiment with 786-0 it was 5.77 µM (inactive). Moreover, the GI50 with EKVX is 13.8 µM (inactive); in the experiment with SK-MEL-2 it was 2.89 µM (inactive); in the experiment with PC-3, 40.7 µM (inactive); with TK-10, 17.5 µM (inactive); in the experiment on MDA-N it was 2.13 µM (inactive); in the experiment with NCI-H460, 4.97 µM (inactive). In addition, in the experiment on NCI/ADR-RES, the GI50 was 1.82 µM (inactive).

Turning to `C[C@H](CCc1nc(C#N)c(N)o1)[C@H]1CC[C@H]2[C@@H]3CCC4C[C@@H](O)CC[C@]4(C)[C@H]3C[C@@H](O)[C@]12C` (stereo not given in full), the GI50 in the experiment on HCC 2998 was 16.6 µM (inactive); in the experiment with HCT-15, 14.7 µM; in the experiment on BT-549, 2.65 µM (inactive); in the experiment on M14, 15.4 µM (inactive); with SK-OV-3, 14.3 µM (inactive); with OVCAR-3, 11.9 µM (inactive). Further, the GI50 in the experiment on CCRF-CEM was 0.143 µM (active); in the experiment on SNB-75 it was 10.3 µM (inactive); in the experiment on U-251, 12.5 µM (inactive); in the experiment with HL-60 it was 0.475 µM (active); with SN12C, 10.7 µM (inactive); in the experiment on 786-0, 10.8 µM (inactive). In addition, the GI50 is 12.9 µM (inactive) in the experiment on EKVX; 16.3 µM (inactive) with SK-MEL-2; 4.33 µM (inactive) in the experiment with PC-3; 14.7 µM (inactive) in the experiment on TK-10; 13.9 µM (inactive) with MDA-N; 14.6 µM (inactive) with NCI-H460. In addition, in the experiment on NCI/ADR-RES, the GI50 was 8.49 µM (inactive).

Take `Cc1ccccc1/N=N/c1c(O)c(S(=O)(=O)O)cc2cc(S(=O)(=O)O)ccc12`: the GI50 in the experiment on HCC 2998 was > 100 µM (inactive); with HCT-15, over 100 µM; with BT-549 it was > 100 µM (inactive); in the experiment on M14, > 100 µM (inactive); with SK-OV-3 it was > 100 µM (inactive); with OVCAR-3 it was > 100 µM (inactive). In addition, the GI50 was > 100 µM (inactive) in the experiment on CCRF-CEM; 70.1 µM (inactive) in the experiment with SNB-75; > 100 µM (inactive) in the experiment on U-251; > 100 µM (inactive) in the experiment on HL-60; > 100 µM (inactive) in the experiment on SN12C; > 100 µM (inactive) with 786-0. Further, the GI50 in the experiment on EKVX, in the experiment on SK-MEL-2, in the experiment with PC-3, in the experiment on TK-10, in the experiment on MDA-N and with NCI-H460 was > 100 µM (inactive) throughout. Further, the GI50 with NCI/ADR-RES is > 100 µM (inactive).

As to `CCOP(=O)(O)C(Nc1ccc(/N=N/c2ccccc2)cc1)c1ccc(C(Nc2ccc(/N=N/c3ccccc3)cc2)P(=O)(O)OCC)cc1` (stereo not given), the GI50 in the experiment with HCC 2998 is 17.9 µM (inactive); in the experiment on HCT-15, 19.7 µM; in the experiment with BT-549 it was 18.1 µM (inactive); with M14 it was 15.7 µM (inactive); with SK-OV-3, 18.7 µM (inactive); with OVCAR-3, 75.7 µM (inactive). Besides, the GI50 in the experiment with CCRF-CEM is 22.1 µM (inactive); in the experiment on SNB-75, 14.7 µM (inactive); in the experiment with U-251 it was 18.1 µM (inactive); in the experiment on HL-60, 17.1 µM (inactive); in the experiment on SN12C it was 19.2 µM (inactive); in the experiment with 786-0 it was 26.8 µM (inactive). Moreover, the GI50 is 18.7 µM (inactive) in the experiment on EKVX; 18.2 µM (inactive) in the experiment with SK-MEL-2; 17.1 µM (inactive) with PC-3; 36.2 µM (inactive) with TK-10; 19.4 µM (inactive) in the experiment on MDA-N; 22 µM (inactive) with NCI-H460. Moreover, the GI50 with NCI/ADR-RES was 27.4 µM (inactive).

In the case of `CC(=O)Oc1cccc2c1C(=O)c1c(OC(C)=O)cc(C)cc1C2=O`, the GI50 with HCC 2998 was 61.7 µM (inactive); in the experiment on HCT-15, 40.6 µM; in the experiment on BT-549, 61.1 µM (inactive); in the experiment on M14, 81.7 µM (inactive); in the experiment with SK-OV-3, 34 µM (inactive); with OVCAR-3 it was 16.4 µM (inactive). Also, the GI50 is 18.8 µM (inactive) in the experiment with CCRF-CEM; 36 µM (inactive) in the experiment with SNB-75; 30.2 µM (inactive) in the experiment with U-251; 23.6 µM (inactive) with HL-60; 51.2 µM (inactive) with SN12C; 20.4 µM (inactive) in the experiment with 786-0. Moreover, the GI50 in the experiment on EKVX is 24.4 µM (inactive); in the experiment on SK-MEL-2, 29 µM (inactive); with PC-3, 26.1 µM (inactive); in the experiment with TK-10, > 100 µM (inactive); in the experiment with MDA-N, 58.5 µM (inactive); in the experiment with NCI-H460 it was 26.1 µM (inactive). For the same molecule, the GI50 in the experiment on NCI/ADR-RES was 21.1 µM (inactive).

These data come from ChEMBL document CHEMBL1201862, “PubChem BioAssay data set” (2004).
